pEC50, pIC50, pKi: −log10 of the molar value.

In general, pIC50 refers to the IC50 on a negative log10 scale, so that one unit is a factor of ten. Usually pEC50 stands for the negative decadic logarithm of the EC50, by convention in mol/L. In general, pKi refers to the negative decadic logarithm of the Ki, by convention in mol/L. As a reminder, the logP is a log measure of how a compound divides between an organic and an aqueous phase. A higher logP goes with higher lipophilicity.

Data set [1] addresses T1, Rhodesain (Trypanosoma brucei rhodesiense, UniProt Q95PM0). As to the kind of experiment: Inhibition of Trypanosoma brucei rhodesiense rhodesain.
Data set [2] concerns Trypanosoma cruzi. The experiment in a line: Antitrypanosomal activity against Trypanosoma cruzi assessed as reduction in parasite growth. The class given is functional, organism-based.
Data set [3] has as its system Trypanosoma brucei. The experiment in a line: Antitrypanosomal activity against Trypanosoma brucei assessed as parasite growth inhibition. The class given is functional, organism-based.
Data set [4] deals with Trypanosoma brucei brucei. As to the kind of experiment: Antitrypanosomal activity against Trypanosoma brucei brucei assessed as parasite growth inhibition. It is filed as functional, organism-based.
For data set [5], the system named is Trypanosoma cruzi. As to the kind of experiment: Antitrypanosomal activity against Trypanosoma cruzi. The class given is functional, organism-based.
For data set [6], the target named is T2, Cruzipain (Trypanosoma cruzi, UniProt P25779). As to the kind of experiment: Binding affinity to Trypanosoma cruzi Cruzain assessed as inhibition constant.
T2 sequence (P25779 whole entry): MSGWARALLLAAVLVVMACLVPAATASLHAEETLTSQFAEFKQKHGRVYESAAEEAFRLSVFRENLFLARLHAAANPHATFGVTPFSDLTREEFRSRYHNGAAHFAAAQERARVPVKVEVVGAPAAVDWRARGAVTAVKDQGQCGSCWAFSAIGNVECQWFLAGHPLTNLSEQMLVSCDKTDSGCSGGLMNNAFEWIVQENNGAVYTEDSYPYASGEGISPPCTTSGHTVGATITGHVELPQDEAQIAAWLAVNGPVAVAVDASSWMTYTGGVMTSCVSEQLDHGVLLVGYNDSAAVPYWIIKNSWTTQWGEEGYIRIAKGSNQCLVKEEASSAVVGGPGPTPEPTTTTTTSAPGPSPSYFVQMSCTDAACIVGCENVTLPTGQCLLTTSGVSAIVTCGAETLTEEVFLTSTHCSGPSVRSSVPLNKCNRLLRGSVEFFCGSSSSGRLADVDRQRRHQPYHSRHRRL
Data set [7] deals with T1, Rhodesain. The experiment in a line: Inhibition of Trypanosoma brucei rhodesiense rhodesain expressed in Pichia pastoris measured for 30 mins using Cbz-Phe-Arg-AMC as substrate.
The target of data set [8] is T2, Cruzipain. The experiment in a line: Inhibition of Trypanosoma cruzi Cruzain.
Data set [9] addresses Cathepsin S (Homo sapiens, UniProt P25774). As to the kind of experiment: Binding affinity to Cathepsin S (unknown origin) assessed as inhibition constant measured after 22 hrs.
The subject of data set [10] is Trypanosoma cruzi. As to the kind of experiment: Antitrypanosomal activity against Trypanosoma cruzi assessed as inhibition of growth incubated for 4 days by resazurin dye based assay. It is filed as functional, organism-based. The settings on record: 96 h.
Data set [11] in a line: Lipophilicity, logP of compound. The class given is physicochemical. The settings on record: octanol/water.

T1 sequence (Q95PM0 whole entry): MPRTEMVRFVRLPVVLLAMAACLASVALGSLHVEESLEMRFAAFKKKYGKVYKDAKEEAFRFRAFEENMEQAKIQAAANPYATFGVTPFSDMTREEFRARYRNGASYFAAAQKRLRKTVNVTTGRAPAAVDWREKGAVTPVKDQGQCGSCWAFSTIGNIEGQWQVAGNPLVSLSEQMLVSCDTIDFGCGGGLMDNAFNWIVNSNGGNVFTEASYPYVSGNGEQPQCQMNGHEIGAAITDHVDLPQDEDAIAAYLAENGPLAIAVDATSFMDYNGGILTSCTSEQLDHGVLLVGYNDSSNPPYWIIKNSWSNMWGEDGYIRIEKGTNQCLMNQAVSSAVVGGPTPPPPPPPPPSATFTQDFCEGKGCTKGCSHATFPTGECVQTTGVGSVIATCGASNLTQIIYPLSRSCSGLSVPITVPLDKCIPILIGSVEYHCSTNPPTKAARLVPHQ
Chain of Cathepsin S (P25774 whole entry): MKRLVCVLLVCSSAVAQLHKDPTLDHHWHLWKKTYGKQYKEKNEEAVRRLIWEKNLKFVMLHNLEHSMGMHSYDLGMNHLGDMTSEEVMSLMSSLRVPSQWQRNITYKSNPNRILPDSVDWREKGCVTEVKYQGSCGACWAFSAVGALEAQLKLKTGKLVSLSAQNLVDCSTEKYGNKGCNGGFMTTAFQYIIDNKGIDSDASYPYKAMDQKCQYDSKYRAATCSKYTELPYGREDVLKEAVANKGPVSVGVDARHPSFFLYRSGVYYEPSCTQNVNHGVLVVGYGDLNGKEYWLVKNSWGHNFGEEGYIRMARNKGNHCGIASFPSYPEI

For `OCCCNc1ccnc2cc(Cl)ccc12`, the pIC50 in data set [1] was 4.14; in [2] it was 5.19.
As for `N#Cc1nc(Cc2ccc(Cl)cc2)c2ncn(Cc3cccc(C(F)(F)F)c3)c2n1`, in data set [3], the pEC50 is 6.47.
For the compound `Clc1ccc2c(NCCN3CCOCC3)ccnc2c1`, the figures for the pIC50 in data set [1] and in data set [2] were 4.21 and below 3.60, respectively.
Regarding `OCCNc1ccnc2cc(Cl)ccc12`, the results for the pIC50 in [1] and in [2] were 4.24 and below 3.60, respectively.
Take `CCCCn1cnc2c(Cc3ccc(Cl)c(Cl)c3)nc(C#N)nc21`: the pEC50 in data set [3] was 6.74.
As for `CCCCCCS(=O)(=O)NCCCC[C@@H](/C=C/S(=O)(=O)c1ccccc1)NC(=O)[C@H](Cc1ccccc1)NC(=O)OCc1ccccc1`, the pEC50 in data set [4] was 5.91.
For `COCCCn1cnc2c(Cc3ccc(Cl)c(Cl)c3)nc(C#N)nc21`, the pEC50 in data set [3] was 6.82.
`O=C(N[C@@H](Cc1ccccc1)C(=O)N[C@H](/C=C/S(=O)(=O)c1ccccc1)CCCCNS(=O)(=O)c1ccc2ccccc2c1)OCc1ccccc1`: the pEC50 in data set [4] is 5.93.
As to `N#Cc1nc(Cc2ccc(Cl)c(Cl)c2)c2ncn(CCCCCO)c2n1`, the pEC50 in data set [3] was 7.22.
Compound `N#CC1(NC(=O)[C@H](Cc2ccccc2)N[C@H](c2ccccc2)C(F)(F)F)CC1` showed a pEC50 in data set [5] of 6.92.
As for `N#CCNC(=O)[C@H](Cc1ccccc1)NC(=O)c1cc(Br)ccn1`, the pKi in data set [6] is 6.60.
`Cc1nc(-c2ccccc2)sc1C(=O)N[C@H](/C=C/S(=O)(=O)c1ccccc1)CCc1ccccc1` had a pKi in data set [7] of 8.22.
As for `N#Cc1nc(Cc2ccccc2)c2ncn(Cc3cccc(C(F)(F)F)c3)c2n1`, in [3], the pEC50 was 6.59.
On the same count and under the same terms, then `CCCCn1cnc2c(Cc3cccc(C)c3)nc(C#N)nc21`, with 6.57.
In the case of `O=C(CNc1ccnc2cc(Cl)ccc12)N1CCOCC1`, the pIC50 was 4.32 in data set [1] and below 3.60 in [2].
For the compound `Clc1ccc2[nH]c3c(NCCCN4CCOCC4)ncnc3c2c1`, the pIC50 in data set [8] was 5.60.
On to `NCCCNc1ccnc2cc(Cl)ccc12`, for which, in data set [2], the pIC50 was below 3.60.
In turn, `CCOC(=O)/C=C\C(=O)[C@H](CC(C)C)NC(=O)[C@H](Cc1ccccc1)NC(=O)OCc1ccccc1` showed a pIC50 in data set [1] of 7.79.
Take `N#Cc1nc(Cc2ccc(Cl)cc2)c2ncn(CCCO)c2n1`: the pEC50 in [3] was 6.51.
Consider `N#Cc1nc(C2CCCCC2)c2ncn(Cc3ccccc3)c2n1`, for which the pEC50 in data set [3] is 6.48.
On to `CCCCn1cnc2c(Cc3ccc(OC)cc3)nc(C#N)nc21`, for which the pEC50 in data set [3] was 6.41.
`O=C(COc1ccccc1F)NCCc1nc2ccccc2[nH]1`: the pKi in data set [9] was 6.44.
`OCCN1CCN(c2ccnc3cc(Cl)ccc23)CC1`: the pIC50 in data set [2] is below 3.60.
With `O=C(COc1ccc2ccccc2c1Br)NCCc1nc2ccccc2[nH]1`, in data set [6], the pKi was 7.10.
In [1], `NCCNc1ccnc2cc(Cl)ccc12` showed a pIC50 of 3.90.
Turning to `CC(C)(F)C[C@H](N[C@@H](c1ccc(-c2ccc(S(C)(=O)=O)cc2)cc1)C(F)(F)F)C(=O)NC1(C#N)CC1` [ODANACATIB], in data set [10], the pEC50 is 5.60.
The compound `Cc1nn(C)c2cc(N3CCN(C(=O)[C@@H]4CCCC[C@H]4C(=O)NC4(C#N)CC4)[C@H](C)C3)ccc12` had a pEC50 in data set [5] of 5.89.
In the case of `N#Cc1nc(Cc2ccc(Cl)c(Cl)c2)c2ncn(CCCO)c2n1`, in data set [3], the pEC50 is 6.96.
The compound `CCCCC(C(=O)COc1c(F)c(F)cc(F)c1F)n1cc([C@@](C)(NCc2ccc3ncccc3c2)C(C)C)nn1` (stereo not given in full) came in with a logP in data set [11] of 5.8.
Turning to `O=C(COCc1ccccc1Br)NCCc1nc2ccccc2[nH]1`, the results for the pIC50 in data set [8] and in [2] were 4.11 and 4.46, respectively.
`CCCNc1ccnc2cc(Cl)ccc12` had a pIC50 in data set [1] of 4.47.
In the case of `O=C(N[C@@H](Cc1ccccc1)C(=O)N[C@H](/C=C/S(=O)(=O)c1ccccc1)CCCCn1nnc2ccccc21)OCc1ccccc1`, the pEC50 in data set [4] is 5.73.
On to `Clc1ccc2c(NCc3ccccc3)ccnc2c1`, for which, in [1], the pIC50 was 4.47.
Take `COC(CCn1cnc2c(Cc3ccc(Cl)c(Cl)c3)nc(C#N)nc21)OC`: the pEC50 in data set [3] is 6.66.
For `O=C(COc1ccccc1I)NCCc1nc2ccccc2[nH]1`, in [9], the pKi is 7.32.
As to `CCOC(=O)/C=C/[C@@H](O)[C@H](CCc1ccccc1)NC(=O)[C@H](Cc1ccccc1)NC(=O)OCc1ccccc1`, in data set [1], the pIC50 is 4.70.
On to `COc1ccc(Cn2cnc3c(Cc4ccc(Cl)cc4)nc(C#N)nc32)cc1`, for which the pEC50 in [3] was 6.57.
With `N#Cc1ccccc1OCC(=O)NCCc1nc2ccccc2[nH]1`, the pKi in [9] was 6.66.
For `N#Cc1nc(Cc2ccccc2)c2ncn(CC3CCCCO3)c2n1` (stereo not given), the pEC50 in data set [3] is 6.62.
On the same count and under the same terms, then `N#Cc1nc(Cc2ccc(Cl)c(Cl)c2)c2ncn(Cc3ccccc3)c2n1`, with 6.59.

Source of the values: ChEMBL document CHEMBL5244221, “Synthesis and structure-activity relationship studies of cruzain and rhodesain inhibitors” (Eur J Med Chem, 2018).
